In US5801149A, “Inhibition of signal transduction molecules” (Joslin D-abetes Center, Inc., priority 1995, dated 1998):
pIC50, pKd, pKi: −log10 of the molar value. Non-standard residues stand in square brackets, D forms with d. Residues, ends and D or L forms follow the SMILES beside them. No end group written: not given here. Pmp = N[C@@H](Cc1ccc(CP(=O)(O)O)cc1)C(=O)O; dPmp = N[C@H](Cc1ccc(CP(=O)(O)O)cc1)C(=O)O; pY = N[C@@H](Cc1ccc(OP(=O)(O)O)cc1)C(=O)O

Target: T1, p85 SH2 domains (SH2/GST fusion protein) (Homo sapiens, UniProt P27986)
T1 construct: GST
Assay: Biospecific interaction analysis of binding to p85 SH2 domains
Details: isolated SH2 domains of PI 3-kinase p85; overview statement
Description: Therefore, mT-pY315 binding to p85 SH2 domains was analyzed using biospecific interaction analysis as previously described to obtain a more accurate estimate for KD. Series of data were obtained during real-time binding experiments with different concentrations of SH2/GST fusion protein (data not shown).

T1 sequence (P27986 333-428 limits assumed): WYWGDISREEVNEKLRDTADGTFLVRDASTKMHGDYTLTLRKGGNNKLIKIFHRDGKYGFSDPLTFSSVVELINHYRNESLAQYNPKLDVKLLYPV

CSCC[C@H](NC(=O)[C@@H]1CCCN1C(=O)[C@H](CCSC)NC(=O)[C@H](Cc1ccc(CP(=O)(O)O)cc1)NC(=O)[C@H](CCC(=O)O)NC(=O)[C@H](CCC(=O)O)NC(=O)[C@@H](N)CCC(=O)O)C(=O)N[C@@H](CCC(=O)O)C(=O)N[C@@H](CC(=O)O)C(=O)N[C@@H](CC(C)C)C(=O)N[C@@H](Cc1ccc(O)cc1)C(=O)O [L-mT-Pmp315] (H-EEE[Pmp]MPMEDLY-OH) showed a pKd of 7.70 to 8.00.

Target: T2, Rat PTPase 1B (Rattus norvegicus, UniProt P20417)
T2 construct: cloning the full-length cDNA into the bacterial expression vector, PKK233-2; made in house; host or cells: bacteria (vector PKK233-2)
T2 sequence (P20417 1-432): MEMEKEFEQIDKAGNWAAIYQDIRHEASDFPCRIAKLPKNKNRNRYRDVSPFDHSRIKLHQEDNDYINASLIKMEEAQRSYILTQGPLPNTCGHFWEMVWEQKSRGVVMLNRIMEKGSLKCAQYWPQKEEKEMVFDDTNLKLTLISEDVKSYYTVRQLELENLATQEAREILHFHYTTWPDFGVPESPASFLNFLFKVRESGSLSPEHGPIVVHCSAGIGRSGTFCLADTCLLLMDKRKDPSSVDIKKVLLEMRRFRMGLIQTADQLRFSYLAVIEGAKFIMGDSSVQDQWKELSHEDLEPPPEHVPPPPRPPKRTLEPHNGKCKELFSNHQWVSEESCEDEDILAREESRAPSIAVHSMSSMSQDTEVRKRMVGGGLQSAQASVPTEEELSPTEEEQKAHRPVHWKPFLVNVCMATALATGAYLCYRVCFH
Assay: PTPase 1B peptide dephosphorylation (Km) and inhibition (Ki)
Format: biochemical
Details: Pmp and Pmp-peptides as inhibitors
Description: The phosphopeptides were used as substrates of PTPase 1B, a single catalytic domain PTPase with a […] tissue distribution (Hunter et al., 1989, cell 58:1013). Rat PTPase 1B (Guan et al., 1990, Proc. Natl., Acad. Sci. USA 87:1501) was obtained by PCR and cloning the full-length cDNA into the bacterial expression vector, PKK233-2.
Sequence specificity for peptide dephosphorylation was observed, with apparent Km values ranging from <2 μM for the phospho-middle t sequence to >2 mM for pTyr itself (Table 3).
Several phosphono peptides were tested for the ability to inhibit PTPase 1B activity and KI values determined by methods known to those skilled in the art.

Compared with CC[C@H](C)[C@H](NC(=O)[C@H](CC(=O)O)NC(=O)[C@@H](N)CCCNC(=N)N)C(=O)N[C@H](Cc1ccc(CP(=O)(O)O)cc1)C(=O)N[C@@H](CCC(=O)O)C(=O)N[C@H](C(=O)N[C@@H](CC(=O)O)C(=O)N[C@@H](Cc1ccc(O)cc1)C(=O)N[C@@H](Cc1ccc(O)cc1)C(=O)N[C@@H](CCCNC(=N)N)C(=O)N[C@@H](CCCCN)C(=O)O)[C@@H](C)O [IR1155-1165(d-Pmp1158), RDI[D-Pmp]ETDYYRK] (H-RDI[dPmp]ETDYYRK-OH; N-terminus assumed), “RDIPmpETDPmpPmpRK [IR1155-1165(D,L-Pmp3)]” is higher in pKi: 4.52 for the first, > 5.70 for the second.

CC[C@H](C)[C@H](NC(=O)[C@H](CC(=O)O)NC(=O)[C@@H](N)CCCNC(=N)N)C(=O)N[C@@H](Cc1ccc(CP(=O)(O)O)cc1)C(=O)N[C@@H](CCC(=O)O)C(=O)N[C@H](C(=O)N[C@@H](CC(=O)O)C(=O)N[C@@H](Cc1ccc(O)cc1)C(=O)N[C@@H](Cc1ccc(O)cc1)C(=O)N[C@@H](CCCNC(=N)N)C(=O)N[C@@H](CCCCN)C(=O)O)[C@@H](C)O [IR1155-1165(L-Pmp1158), RDI[L-Pmp]ETDYYRK] (H-RDI[Pmp]ETDYYRK-OH; N-terminus assumed) gave a pKi of 4.52.

Same assay, conditions: apparent Km, phosphotyrosine and pY-peptides as substrates

First: C[C@@H](O)[C@H](N)C(=O)N[C@@H](CCC(=O)O)C(=O)N1CCC[C@H]1C(=O)N[C@@H](CCC(=O)O)C(=O)N[C@@H](Cc1ccc(OP(=O)(O)O)cc1)C(=O)N[C@@H](CCC(N)=O)C(=O)N1CCC[C@H]1C(=O)NCC(=O)N[C@@H](CCC(=O)O)C(=O)O [pp60^c-src (pYS27), TEPEpYQPGE] (H-TEPE[pY]QPGE-OH)
Second: CSCC[C@H](NC(=O)[C@@H]1CCCN1C(=O)[C@H](CCSC)NC(=O)[C@H](Cc1ccc(OP(=O)(O)O)cc1)NC(=O)CNC(=O)[C@H](CC(=O)O)NC(=O)[C@H](CC(=O)O)NC(=O)[C@@H](N)[C@@H](C)O)C(=O)N[C@@H](CO)C(=O)N1CCC[C@H]1C(=O)NCC(=O)N[C@H](C(=O)O)C(C)C [IRS-1(pY608), TDDGpYMPMSPGV] (H-TDDG[pY]MPMSPGV-OH)
The Km of the first is 3.8-fold lower: 8 µM for the first, 30 µM for the second.

CC[C@H](C)[C@H](NC(=O)[C@H](CC(=O)O)NC(=O)[C@@H](N)CCCNC(=N)N)C(=O)N[C@@H](Cc1ccc(OP(=O)(O)O)cc1)C(=O)N[C@@H](CCC(=O)O)C(=O)N[C@H](C(=O)N[C@@H](CC(=O)O)C(=O)N[C@@H](Cc1ccc(O)cc1)C(=O)N[C@@H](Cc1ccc(O)cc1)C(=O)N[C@@H](CCCNC(=N)N)C(=O)N[C@@H](CCCCN)C(=O)O)[C@@H](C)O [1R1155-1165(pY1158), RDIpYETDYYRK] (H-RDI[pY]ETDYYRK-OH) and CC[C@H](C)[C@H](NC(=O)[C@H](CC(=O)O)NC(=O)[C@@H](N)CCCNC(=N)N)C(=O)N[C@@H](Cc1ccc(O)cc1)C(=O)N[C@@H](CCC(=O)O)C(=O)N[C@H](C(=O)N[C@@H](CC(=O)O)C(=O)N[C@@H](Cc1ccc(OP(=O)(O)O)cc1)C(=O)N[C@@H](Cc1ccc(O)cc1)C(=O)N[C@@H](CCCNC(=N)N)C(=O)N[C@@H](CCCCN)C(=O)O)[C@@H](C)O [IR1155-1165(pY1162), RDIYETDpYYRK] (H-RDIYETD[pY]YRK-OH) are within 1.5-fold of each other in Km: 30 µM for the first, 40 µM for the second.

First: CC[C@H](C)[C@H](NC(=O)[C@H](CCC(N)=O)NC(=O)[C@@H]1CCCN1C(=O)[C@H](C)NC(=O)[C@H](CCSC)NC(=O)[C@@H]1CCCN1C(=O)[C@H](CCSC)NC(=O)[C@H](Cc1ccc(OP(=O)(O)O)cc1)NC(=O)[C@H](CCC(=O)O)NC(=O)[C@H](CC(N)=O)NC(=O)[C@H](CCC(=O)O)NC(=O)[C@@H](N)CCCNC(=N)N)C(=O)N[C@@H](Cc1c[nH]cn1)C(=O)O [middle t(pY298), RENEpYMPMAPQIH] (H-RENE[pY]MPMAPQIH-OH)
Second: CSCC[C@H](NC(=O)[C@@H]1CCCN1C(=O)[C@H](CCSC)NC(=O)[C@H](Cc1ccc(OP(=O)(O)O)cc1)NC(=O)[C@H](CC(=O)O)NC(=O)CNC(=O)[C@H](CC(N)=O)NC(=O)CN)C(=O)N[C@@H](CO)C(=O)N1CCC[C@H]1C(=O)N[C@@H](CCCCN)C(=O)N[C@@H](CO)C(=O)O [IRS-1(pY628), GNGDpYMPMSPKS] (H-GNGD[pY]MPMSPKS-OH)
The Km of the first is lower: < 2 µM for the first, 100 µM for the second.

Compared with CC[C@H](C)[C@H](NC(=O)[C@H](CC(=O)O)NC(=O)[C@@H](N)CCCNC(=N)N)C(=O)N[C@@H](Cc1ccc(O)cc1)C(=O)N[C@@H](CCC(=O)O)C(=O)N[C@H](C(=O)N[C@@H](CC(=O)O)C(=O)N[C@@H](Cc1ccc(O)cc1)C(=O)N[C@@H](Cc1ccc(OP(=O)(O)O)cc1)C(=O)N[C@@H](CCCNC(=N)N)C(=O)N[C@@H](CCCCN)C(=O)O)[C@@H](C)O [IR1155-1165(pY1163), RDIYETDYpYRK] (H-RDIYETDY[pY]RK-OH), CC[C@H](C)[C@H](NC(=O)[C@H](CO)NC(=O)[C@H](CCC(=O)O)NC(=O)[C@H](CC(=O)O)NC(=O)[C@@H](N)CCCCN)C(=O)N[C@@H](CC(=O)O)C(=O)N[C@@H](Cc1ccc(OP(=O)(O)O)cc1)C(=O)N[C@H](C(=O)N1CCC[C@H]1C(=O)N[C@@H](CCSC)C(=O)N[C@@H](CC(C)C)C(=O)N[C@@H](CC(=O)O)C(=O)N[C@@H](CCSC)C(=O)N[C@@H](CCCCN)C(=O)NCC(=O)N[C@@H](CC(=O)O)C(=O)O)C(C)C [mPDGF-Rβ(pY719), KDESIDpYVPMLDMKGD] (H-KDESID[pY]VPMLDMKGD-OH) is 3.8-fold lower in Km: 30 µM for the first, 8 µM for the second.

Tested on: IRS-1/PI 3-kinase association
Assay: Inhibition of association of PI 3-kinase activity (CHO cell extract) with immobilized phosphorylated IRS-1
Format: biochemical
Details: dose-response studies
Description: Inhibiting interactions between IRS-1 and PI 3-kinase IRS-1 produced in a baculovirus expression system was adsorbed to anti-peptide (IRS-1) antibodies and phosphorylated by solubilized insulin receptors (which were then washed away). […] After incubation and additional washing, PI 3-kinase activity associated with the immobilized IRS-1 was determined as described, Auger et al. PI 3-kinase activity associated with IRS-1 only after phosphorylation by the insulin receptor. Various peptides were added during incubation of immobilized IRS-1 with the ChO cell extract (PI 3-kinase) to determine their ability to block association. Concentration dependent effects of phosphorylated vs. unphosphorylated middle T and IRS-1 […] YMXM sequences were determined. […] A detailed study of these effects is a major target of this proposal.

“pY628: phosphorylated form of IRS-1 YMXM sequence Y628 (SEQ ID NO: 26, Table 1) (RKGNGDG[pY]MPMSPKSV)” was tested, and the “ED50 for inhibition of IRS-1/PI 3-kinase association” value was ≤ 0.05 µM.

Target: T3, N-terminal p85 SH2/GST fusion protein (Homo sapiens, UniProt P27986)
T3 construct: N-terminal p85 SH2/GST fusion proteins (100 nM)
Assay: biochemical
Format: binding
Details: not given
Description: Peptide Binding to Isolated Glutathione S-Transferase/SH2 Domain Fusion Proteins was determined as follows. N-terminal p85 SH2/GST fusion proteins (100 nM) (Hu et al., 1992, Mol. Cell. Biol. 12:981-990), 35 fmol of HPLC-purified, [^125 I]Bolton-Hunter-treated phosphopeptide (67 nCi) and varying concentrations of unlabeled peptides were combined in 200 μl total volume of 20 mM tris-HCl, 250 mM NaCl, 0.1% bovine serum albumin, 10 mM dithiothreitol, pH 7.4. Glutathione-agarose (25 μl of a 1:4 aqueous slurry, Molecular Probes) was added and the samples were incubated at 22° C. for 4 h. Following centrifugation for 5 min at 12,000×g, supernatant solutions were removed by aspiration and [^125 I]radioactivity associated with the pellets was determined with a […].
Phosphopeptide and phosphonopeptide binding to p85 SH2 domains. To investigate the mechanism of phosphonopeptide inhibition of association direct binding to an isolated SH2 domain of the p85 of PI 3-kinase was analyzed. In the assay, tracer amounts of [^125 I]-labeled phosphopeptide, SH2 domain/GST fusion protein, and varying concentrations of unlabeled peptides were incubated together along with glutathione-agarose. […] ID50 values were determined as the concentration of unlabeled peptide required to inhibit 50% of specific [^125 I]phosphopeptide binding. […]

T3 sequence (P27986 333-428 limits assumed): as the sequence (P27986 333-428 limits assumed) above

Compared with CSCC[C@H](NC(=O)[C@@H]1CCCN1C(=O)[C@H](CCSC)NC(=O)[C@H](Cc1ccc(CP(=O)(O)O)cc1)NC(=O)[C@H](CCC(=O)O)NC(=O)[C@H](CCC(=O)O)NC(=O)[C@@H](N)CCC(=O)O)C(=O)N[C@@H](CCC(=O)O)C(=O)N[C@@H](CC(=O)O)C(=O)N[C@@H](CC(C)C)C(=O)N[C@@H](Cc1ccc(O)cc1)C(=O)O [L-mT-Pmp315] (H-EEE[Pmp]MPMEDLY-OH), CSCC[C@H](NC(=O)[C@@H]1CCCN1C(=O)[C@H](CCSC)NC(=O)[C@@H](Cc1ccc(CP(=O)(O)O)cc1)NC(=O)[C@H](CCC(=O)O)NC(=O)[C@H](CCC(=O)O)NC(=O)[C@@H](N)CCC(=O)O)C(=O)N[C@@H](CCC(=O)O)C(=O)N[C@@H](CC(=O)O)C(=O)N[C@@H](CC(C)C)C(=O)N[C@@H](Cc1ccc(O)cc1)C(=O)O [D-mT-Pmp315] (H-EEE[dPmp]MPMEDLY-OH) is 1.26 log units lower in pIC50: 5.14 for the first, 3.88 for the second. The first is the more potent here.
